Source: patent publication US20080287653A1, “METHOD FOR PRODUCING INHIBITORS AND INHIBITORS FORMED THEREFROM” (THE UNIVERSITY OF AKRON, priority 2007, published 2008)
Non-standard residues stand in square brackets, D forms with d. Residues, ends and D or L forms follow the SMILES beside them. Lys(Thioacetyl) = CC(=S)NCCCC[C@H](N)C(=O)O

What was measured:
Assay type in all cases: biochemical
SIRT1 = target: T1, SIRT1 (Homo sapiens, UniProt Q96EB6); assay: HPLC-based SIRT1 inhibition assay with purified GST-SIRT1
T1 construct: made in house
T1 sequence (Q96EB6 1-747): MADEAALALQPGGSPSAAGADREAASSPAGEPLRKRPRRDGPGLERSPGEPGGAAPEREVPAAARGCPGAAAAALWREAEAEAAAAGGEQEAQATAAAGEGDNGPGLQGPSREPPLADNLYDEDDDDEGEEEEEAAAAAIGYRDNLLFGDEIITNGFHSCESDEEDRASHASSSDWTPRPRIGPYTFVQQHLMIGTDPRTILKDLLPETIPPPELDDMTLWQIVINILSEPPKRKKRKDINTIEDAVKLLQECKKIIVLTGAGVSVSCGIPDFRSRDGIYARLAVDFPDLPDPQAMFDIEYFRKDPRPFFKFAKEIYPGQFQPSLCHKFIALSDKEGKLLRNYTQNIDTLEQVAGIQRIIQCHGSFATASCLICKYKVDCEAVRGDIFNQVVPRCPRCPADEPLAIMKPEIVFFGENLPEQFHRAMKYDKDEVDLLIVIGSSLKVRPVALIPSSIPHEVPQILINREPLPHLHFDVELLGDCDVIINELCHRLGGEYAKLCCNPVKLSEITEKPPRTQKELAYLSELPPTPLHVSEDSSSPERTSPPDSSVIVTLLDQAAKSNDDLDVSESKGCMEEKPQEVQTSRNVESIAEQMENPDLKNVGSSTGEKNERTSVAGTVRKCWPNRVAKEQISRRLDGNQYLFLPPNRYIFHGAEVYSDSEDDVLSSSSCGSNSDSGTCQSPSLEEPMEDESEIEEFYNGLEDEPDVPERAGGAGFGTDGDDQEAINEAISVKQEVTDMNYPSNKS
Experimental: Inhibition assays with purified SIRT1, SIRT2, and SIRT3. GST-SIRT1 that could be produced in a laboratory was used for the SIRT1 inhibition assay. SIRT2 and SIRT3 are obtainable from commercial sources known to those skilled in the art. Consistent HPLC-based assay procedures were used for the inhibition assays with SIRT1, SIRT2, and SIRT3. […] An enzymatic reaction was initiated by the addition of an enzyme at 37° C. and was allowed to be incubated at 37° C.: 10 minutes as follows: for SIRT1 assay, or 60 minutes for SIRT2 and SIRT3 assays. Incubation was quenched at the indicated time with the following stop solution: 100 mM HCl and 0.16 M acetic acid. […] All peptide stock solutions were prepared in ddH2O. IC50 values were estimated from Dixon plots (1/v0 vs. [inhibitor]) as an indication of the inhibition potency.

SIRT3 = target: T2, SIRT3 (Homo sapiens, UniProt Q9NTG7); assay: HPLC-based SIRT3 inhibition assay with purified SIRT3; conditions: SIRT3 vs SIRT2
T2 construct: purchased
T2 sequence (Q9NTG7 1-399): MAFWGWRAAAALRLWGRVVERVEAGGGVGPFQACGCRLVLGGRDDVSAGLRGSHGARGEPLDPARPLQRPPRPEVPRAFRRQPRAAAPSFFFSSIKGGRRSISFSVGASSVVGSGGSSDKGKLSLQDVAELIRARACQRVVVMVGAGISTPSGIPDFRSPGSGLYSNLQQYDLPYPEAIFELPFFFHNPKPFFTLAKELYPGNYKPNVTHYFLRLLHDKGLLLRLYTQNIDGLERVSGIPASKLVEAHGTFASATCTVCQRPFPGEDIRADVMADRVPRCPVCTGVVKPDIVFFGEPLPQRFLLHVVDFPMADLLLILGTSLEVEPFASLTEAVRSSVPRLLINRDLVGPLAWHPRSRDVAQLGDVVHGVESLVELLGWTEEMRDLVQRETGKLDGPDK
Experimental: (§1) Inhibition assays with purified SIRT1, SIRT2, and SIRT3. GST-SIRT1 that could be produced in a laboratory was used for the SIRT1 inhibition assay. SIRT2 and SIRT3 are obtainable from commercial sources known to those skilled in the art. Consistent HPLC-based assay procedures were used for the inhibition assays with SIRT1, SIRT2, and SIRT3. In brief, an inhibition assay solution had the following components: 25 mM (or 50 mM for SIRT2 assay) Tris.HCl (pH 8.0) 137 mM NaCl, 2.7 mM KCl, 1 mM MgCl2, 1 mg/mL BSA (SIGMA Cat. #A3803 with reduced fatty acid content, for SIRT2 assay only), 0.5 mM β-NAD^+, 0.3 mM peptide substrate (peptide 1b for SIRT1 and SIRT2 assays; peptide 3b for SIRT3 assay), an inhibitor (peptide 1a, 2, or 3a) with varied concentrations including 0, and an enzyme (GST-SIRT1, 0.15 μM; SIRT2, 0.3 μM; or SIRT3, 2.0 μM). […] An enzymatic reaction was initiated by the addition of an enzyme at 37° C. and was allowed to be incubated at 37° C.: 10 minutes as follows: for SIRT1 assay, or 60 minutes for SIRT2 and SIRT3 assays. […] The enzymatic deacetylation products (peptide 1c in SIRT1 and SIRT2 assays; peptide 3c in SIRT3 assay) were confirmed by their comigration with the chemically synthesized authentic samples and by MALDI-TOF mass spectrometric analysis, and were quantified by HPLC peak integration and comparison with those of synthetic authentic samples. […]

SIRT2 = target: T3, SIRT2 (Homo sapiens, UniProt Q8IXJ6); assay: HPLC-based SIRT2 inhibition assay with purified SIRT2; conditions: SIRT2 vs SIRT3
T3 construct: purchased
T3 sequence (Q8IXJ6 1-389): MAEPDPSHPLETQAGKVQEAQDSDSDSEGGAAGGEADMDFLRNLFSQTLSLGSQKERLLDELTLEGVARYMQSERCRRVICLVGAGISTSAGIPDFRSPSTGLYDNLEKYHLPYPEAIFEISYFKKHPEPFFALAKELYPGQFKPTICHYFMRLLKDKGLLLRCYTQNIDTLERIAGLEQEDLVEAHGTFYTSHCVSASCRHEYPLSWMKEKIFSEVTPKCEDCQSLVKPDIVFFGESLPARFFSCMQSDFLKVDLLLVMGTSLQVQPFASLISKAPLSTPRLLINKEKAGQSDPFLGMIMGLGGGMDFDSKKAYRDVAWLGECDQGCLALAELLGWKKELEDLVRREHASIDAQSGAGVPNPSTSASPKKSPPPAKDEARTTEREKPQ
Experimental: as §1

SMILES	inhibition weaker for SIRT1 as compared to SIRT2 (SIRT1; SIRT1 vs SIRT2)	inhibition weaker for SIRT3 as compared to SIRT2 (SIRT3)	stronger inhibition with respect to SIRT1 than SIRT2 and SIRT3 (SIRT1; SIRT1 vs SIRT2 and SIRT3)	inhibition potency for SIRT2 relative to SIRT3 (SIRT2)
CC[C@H](C)[C@H](NC(=O)[C@@H](NC(=O)[C@H](CCCCNC(C)=S)NC(=O)[C@H](CC(=O)O)NC(=O)[C@H](CO)NC(=O)[C@@H]1CCCN1C(=O)[C@@H](N)CCSC)[C@@H](C)O)C(=O)NCC(=O)NCC(=O)O [Peptide 2] (H-MPSD[Lys(Thioacetyl)]TIGG-OH)	about 10 fold	about 40 fold		
CC[C@H](C)[C@H](NC(=O)[C@@H](NC(=O)[C@H](CCCCN)NC(=O)[C@H](CCCNC(=N)N)NC(=O)[C@H](CC(C)C)NC(=O)[C@H](CC(C)C)NC(=O)[C@H](CCCNC(=N)N)NC(=O)[C@H](CCCNC(=N)N)NC(=O)[C@H](CCSC)NC(=O)[C@@H](NC(=O)[C@H](CCCCNC(C)=S)NC(=O)CNC(=O)[C@H](CO)NC(=O)[C@H](CCCNC(=N)N)NC(=O)[C@@H](NC(=O)[C@H](CCCCN)NC(=O)[C@@H]1CCCN1C(=O)[C@H](CC(C)C)NC(=O)[C@H](CCCNC(=N)N)NC(=O)[C@@H](N)CCCCN)[C@@H](C)O)C(C)C)[C@@H](C)CC)C(=O)O [Peptide 3a] (H-KRLPKTRSG[Lys(Thioacetyl)]VMRRLLRKII-OH)			about 5 fold	comparably potent inhibitor
